# Results reported in patent US10329324B2 (viDA Therapeutics Inc., priority 2013, dated 2019).
# Where two headings read alike, the source gives them in different places.
# Key:
# human Granzyme B (hGzmB) = target: T1, human Granzyme B (hGzmB) (Homo sapiens, UniProt P10144); experiment: Human Granzyme B enzymatic inhibition assay (fluorogenic, kinetic); format: biochemical; details: activity codes, Table 7; read-out: IC50 Activity Range
# T1 construct: purchased Froelich Lab, Northshore University Health Systems Research Institute, Evanston, Ill., USA
# T1 sequence (P10144 21-247): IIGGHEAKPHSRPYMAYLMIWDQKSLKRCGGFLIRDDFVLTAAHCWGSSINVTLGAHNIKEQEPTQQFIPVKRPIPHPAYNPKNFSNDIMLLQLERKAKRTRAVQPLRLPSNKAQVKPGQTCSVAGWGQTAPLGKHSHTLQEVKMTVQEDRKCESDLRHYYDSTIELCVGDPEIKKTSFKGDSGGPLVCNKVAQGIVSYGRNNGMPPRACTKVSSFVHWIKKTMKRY
# Summary of the method: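 Human Granzyme B preincubated with compound for 30 min total (5 min shaking, 20 min bench, then reaction temperature). Fluorogenic substrate added and read kinetically, 25 cycles at 1-min intervals. Percent inhibition at one or two concentrations or 8–12-point 3-fold dose response from 20 uM, replicates, with IC50 by non-linear regression.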
# [1] = Kinetic solubility determination in PBS; format: physicochemical; details: PBS 1X pH 7.4, 2.0% DMSO, 24 hour incubation at ambient temperature; for solubility at 24 h: phosphate buffered saline (PBS 1×), 21 °C, pH 7.4, aqueous buffer, kinetic from dmso stock
# Experimental: Kinetic solubility buffer (phosphate buffered saline (PBS, 1×) at pH 7.4) was prepared from PBS (10×) solution, (Fisher Scientific, Pittsburgh, Pa., USA, 10×), by adding PBS (50 mL, 10×) to approximately water (450 mL HPLC grade). The volume of the solution was then adjusted to 500 mL for a total dilution factor of 1:10 and a final PBS concentration of 1×. The pH of the final solution (PBS (1×)) was measured and found to be 7.4.
# A DMSO stock solution (typically 10 mM or greater) was used for each compound to be tested. A final DMSO concentration of 2.0% and maximum theoretical compound concentration of typically 200 μM (or greater) was achieved by diluting an aliquot (6 μl) of each stock with kinetic solubility buffer (294 μl, PBS (1×) at pH 7.4) using a liquid handling system (Hamilton STARlet, Hamilton Robotics, Inc., Reno, Nev., USA) and incubated directly in a solubility filter plate (Millipore, Billerica, Mass., USA). Following 24 hour incubation at ambient temperature (20.5-21.7° C.), each sample was vacuum filtered. The filtrate was injected into the chemiluminescent nitrogen detector for quantification (Automated Discovery Workstation, Analiza, Inc., Cleveland, Ohio, USA). Each result was reported both in μM and μg/mL units. Three separate on-board performance indicating standards were assayed in triplicate with each test compound to ensure test results were within the acceptable range.
# The equimolar nitrogen response of the detector was calibrated using standards which spanned the dynamic range of the instrument from 0.08 to 4500 μg/ml nitrogen. Each filtrate was quantified with respect to this calibration curve. Each calculated solubility value was corrected for background nitrogen present in the DMSO, and buffer used to prepare each sample. All reported values for samples containing adjacent nitrogen atoms in a ring structure were corrected for the expected non-equimolar response. Each calculated solubility result assumed that each sample was free of nitrogen containing impurities and was stable under the assay conditions. Analyses were performed at Analiza Inc. (Cleveland, Ohio, USA) by published methods (Bhattachar, S. N., et al, J. Pharma. BioMed Anal. 41:152-7 2006).
# [2] = read-out: Solubility in aqueous PBS Buffer (1X, pH 7.4)
# [3] = read-out: Solubility in aqueous PBS Buffer (1X, pH 7.4), ug/mL
IC50 (human Granzyme B (hGzmB)) [nM],"solubility at 24 h [1, 2] [µM]","solubility at 24 h [1, 3] [µg/mL]","Solubility in aqueous PBS Buffer (1X, pH 7.4), uM [1] [uM]","Solubility in aqueous PBS Buffer (1X, pH 7.4), ug/mL [1] [ug/mL]",Compound
100 to 1000,144,77,–,–,"CC[C@H](C)[C@H](NC(=O)Cc1ccccc1)C(=O)NCC(=O)N1c2ccccc2C[C@H]1C(=O)NCc1nn[nH]n1 [Example A1, (2S)-1-{2-[(2S,3S)-3-Methyl-2-(2-Phenylacetamido)Pentanamido]Acetyl}-N-(2H-1,2,3,4-Tetrazol-5-Ylmethyl)-2,3-Dihydro-1H-Indole-2-Carboxamide]"
< 100,–,–,679,386,"CC[C@H](C)[C@H](NC(=O)C1CCCCC1C(=O)O)C(=O)NCC(=O)N1c2ccccc2C[C@H]1C(=O)NCc1nn[nH]n1 (single isomer, unassigned) [Example A23-2]"
< 100,> 750,> 416,–,–,"CC[C@H](C)[C@H](NC(=O)C1CCCC1C(=O)O)C(=O)NCC(=O)N1c2ccccc2C[C@H]1C(=O)NCc1nn[nH]n1 (single isomer, unassigned) [Example A22-1]"
< 100,> 750,> 407,–,–,"CC[C@H](C)[C@H](NC(=O)CC(C)(C)C(=O)O)C(=O)NCC(=O)N1c2ccccc2C[C@H]1C(=O)NCc1nn[nH]n1 [Example A53, 2,2-Dimethyl-3-{[(1S,2S)-2-Methyl-1-({2-Oxo-2-[(2S)-2-[(2H-1,2,3,4-Tetrazol-5-Ylmethyl)Carbamoyl]-2,3-Dihydro-1H-Indol-1-Yl]Ethyl}Carbamoyl)Butyl]Carbamoyl}Propanoic Acid]"
< 100,719,441,–,–,"CC[C@H](C)[C@H](NC(=O)/C=C\C(=O)O)C(=O)NCC(=O)N1c2ccccc2C[C@H]1C(=O)NCc1nn[nH]n1 [Example A24, (2Z)-3-{[(1S,2S)-2-Methyl-1-({2-Oxo-2-[(2S)-2-[(2H-1,2,3,4-Tetrazol-5-Ylmethyl)Carbamoyl]-2,3-Dihydro-1H-Indol-1-Yl]Ethyl}Carbamoyl)Butyl]Carbamoyl}Prop-2-Enoic Acid]"
100 to 1000,97,62,–,–,"CC[C@H](C)[C@H](NC(=O)Cc1ccccc1)C(=O)NCC(=O)N1c2ccccc2C[C@H]1C(=O)NCc1c[nH]nn1 [Example B1, (2S)-1-{2-[(2S,3S)-3-Methyl-2-(2-Phenylacetamido)Pentanamido]Acetyl}-N-(1H-1,2,3-Triazol-4-Ylmethyl)-2,3-Dihydro-1H-Indole-2-Carboxamide]"
< 100,–,–,641,429,"CC[C@H](C)[C@H](NC(=O)C1CCCCC1C(=O)O)C(=O)NCC(=O)N1c2ccccc2C[C@H]1C(=O)NCc1nn[nH]n1 (single isomer, unassigned) [Example A20-2]"
< 100,–,–,>750,>416,"CC[C@H](C)[C@H](NC(=O)C1CCCC1C(=O)O)C(=O)NCC(=O)N1c2ccccc2C[C@H]1C(=O)NCc1nn[nH]n1 (single isomer, unassigned) [Example A22-2]"
100 to 1000,724,467,–,–,"CC[C@H](C)[C@H](NC(=O)CN(C)CC(=O)O)C(=O)NCC(=O)N1c2ccccc2C[C@H]1C(=O)NCc1nn[nH]n1 [Example A44, 2-[Methyl({[(1S,2S)-2-Methy-1-({2-Oxo-2-[(2S)-2-[(2H-1,2,3,4-Tetrazol-5-Ylmethyl)Carbamoyl]-2,3-Dihydro-1H-Indol-1-Yl]Ethyl}Carbamoyl)Butyl]Carbamoyl}Methyl)Amino]Acetic Acid]"
< 100,> 750,> 418,–,–,"CC[C@H](C)[C@H](NC(=O)CCC(C)(C)C(=O)O)C(=O)NCC(=O)N1c2ccccc2C[C@H]1C(=O)NCc1nn[nH]n1 [Example A52, 2,2-Dimethyl-4-{[(1S,2S)-2-Methyl-1-({2-Oxo-2-[(2S)-2-[(2H-1,2,3,4-Tetrazol-5-Ylmethyl)Carbamoyl]-2,3-Dihydro-1H-Indol-1-Yl]Ethyl}Carbamoyl)Butyl]Carbamoyl}Butanoic Acid]"
< 100,535,358,–,–,"CC[C@H](C)[C@H](NC(=O)C1CCCCC1C(=O)O)C(=O)NCC(=O)N1c2ccccc2C[C@H]1C(=O)NCc1nn[nH]n1 (single isomer, unassigned) [Example A20-1]"
1000 to 10000,> 150,> 78,–,–,"CC[C@H](C)[C@H](NC(=O)CCN)C(=O)NCC(=O)N1c2ccccc2C[C@H]1C(=O)NCc1nn[nH]n1 [Example A6, (2S)-1-{2-[(2S,3S)-2-(3-Aminopropanamido)-3-Methylpentanamido]Acetyl}-N-(2H-1,2,3,4-Tetrazol-5-Ylmethyl)-2,3-Dihydro-1H-Indole-2-Carboxamide]"
< 100,–,–,>750,>425,"CC[C@H](C)[C@H](NC(=O)C1CC=CCC1C(=O)O)C(=O)NCC(=O)N1c2ccccc2C[C@H]1C(=O)NCc1nn[nH]n1 (single isomer, unassigned) [Example A21-2]"
< 100,> 750,> 486,–,–,"CC[C@H](C)[C@H](NC(=O)Cc1ccccc1)C(=O)NCC(=O)N1c2cc(NC(=O)CCC(=O)O)ccc2C[C@H]1C(=O)NCc1nn[nH]n1 [Example C22, 3-{[(2S)-1-{2-[(2S,3S)-3-Methyl-2-(2-Phenylacetamido)Pentanamido]Acetyl}-2-[(2H-1,2,3,4-Tetrazol-5-Ylmethyl)Carbamoyl]-2,3-Dihydro-1H-Indol-6-Yl]Carbamoyl}Propanoic Acid]"
< 100,696,462,–,–,"CC[C@H](C)[C@H](NC(=O)c1ccccc1C(=O)O)C(=O)NCC(=O)N1c2ccccc2C[C@H]1C(=O)NCc1nn[nH]n1 [Example A25, 2-{[(1S,2S)-2-Methyl-1-({2-Oxo-2-[(2S)-2-[(2H-1,2,3,4-Tetrazol-5-Ylmethyl)Carbamoyl]-2,3-Dihydro-1H-Indol-1-Yl]Ethyl}Carbamoyl)Butyl]Carbamoyl}Benzoic Acid]"
100 to 1000,> 750,> 407,–,–,"CC[C@H](C)[C@H](NC(=O)CC(C)CC(=O)O)C(=O)NCC(=O)N1c2ccccc2C[C@H]1C(=O)NCc1nn[nH]n1 (single isomer, unassigned) [Example A17-1]"
< 100,–,–,>750,>454,"CC[C@H](C)[C@H](NC(=O)C(CCC(=O)O)c1ccccc1)C(=O)NCC(=O)N1c2ccccc2C[C@H]1C(=O)NCc1nn[nH]n1 (single isomer, unassigned) [Example A54-2]"
1000 to 10000,125,68,–,–,"CC[C@H](C)[C@H](NC(=O)Cc1ccccc1)C(=O)N[C@@H](C)C(=O)N1c2ccccc2C[C@H]1C(=O)NCc1nn[nH]n1 [Example C11, (2S)-1-[(2S)-2-[(2S,3S)-3-Methyl-2-(2-Phenylacetamido)Pentanamido]Propanoyl]-N-(2H-1,2,3,4-Tetrazol-5-Ylmethyl)-2,3-Dihydro-1H-Indole-2-Carboxamide]"
100 to 1000,565,258,–,–,"CC[C@H](C)[C@H](NC(C)=O)C(=O)NCC(=O)N1c2ccccc2C[C@H]1C(=O)NCc1nn[nH]n1 [Example A15, (2S)-1-{2-[(2S,3S)-2-Acetamido-3-Methylpentanamido]Acetyl}-N-(2H-1,2,3,4-Tetrazol-5-Ylmethyl)-2,3-Dihydro-1H-Indole-2-Carboxamide]"
< 100,672,391,–,–,"CC[C@H](C)[C@H](NC(=O)CC1(CC(=O)O)CCCC1)C(=O)NCC(=O)N1c2ccccc2C[C@H]1C(=O)NCc1nn[nH]n1 [Example A19, 2-[1-({[(1S,2S)-2-Methyl-1-({2-Oxo-2-[(2S)-2-[(2H-1,2,3,4-Tetrazol-5-Ylmethyl)Carbamoyl]-2,3-Dihydro-1H-Indol-1-Yl]Ethyl}Carbamoyl)Butyl]Carbamoyl}Methyl)Cyclopentyl]Acetic Acid]"
